Experimental data from patent US20250114313A1, “OLIGO-BENZAMIDE ANALOGS AND THEIR USE IN CANCER TREATMENT” (BOARD OF REGENTS, THE UNIVERSITY OF TEXAS SYSTEM, priority 2022, published 2025).
Entries after “also recorded” stand apart in the source; their conditions may differ.

Columns and labels:
[1] = tested on: normal human mammary epithelial cells (HMEC); assay: Cell viability (WST, MTT, CellTiter-Glo), HMEC; format: cell-based; conditions: at >1 μM, MTT or CellTiter-Glo
Method: Cell viability assays: Cells were seeded in 96-well plates (2×10^3 cells/well) one day before the treatment. Cells were treated with varying concentrations of ERX-41 or ERX-11 analogs for 3-6 days. Then effects of ERX-41 or ERX-11 analogs on cell viability were measured in triplicate or sextuplicate with multiple biological replicates using the WST-1 (Promega), MTT as previously described^33 or CellTiter-Glo 2.0 (Promega) assays.

[2] = tested on: MDA-MB-231 TNBC tumor xenografts; assay: IHC of ER stress markers in TNBC xenografts after a single dose; format: in vivo, mice; conditions: single dose 10 mg/kg oral, within 24 h
Method: (§1) Immunohistochemistry: Immunohistochemical studies were performed as described previously.^7 For the immunohistochemical studies, tissue sections were blocked in background sniper (Biocare Medical, RS966L) followed by overnight incubation with primary antibodies anti-Ki-67 antibody (1:1000, GeneTex cat #GTX16667 RRID:AB_422351) (link), anti-CHOP antibody (1:2000, Sigma, Cat #HPA068416), anti-PERK (phospho T982) antibody (1:150, Abcam Cat #ab192591, RRID:AB_2728666) link)), anti-phospho-eIF2α (Ser51) (1:50, Cell signaling, cs3398) and subsequent secondary antibody incubation for 60 min at room temperature. Immunoreactivity was visualized by using the DAB substrate and counterstained with hematoxylin (Vector Lab, Inc.). Percent of Ki67 positive proliferating cells was calculated in five randomly selected high-power fields (×40).

[3] = Evaluation of normal organs of treated mice (H&E, IHC, flow cytometry, ELISpot); format: in vivo
Method: as §1
ELISpot. For ELISpot analysis of total IgM^+ and IgG^+ ASCs, Multi-Screen® filter plates (Millipore) were activated with 35% ethanol, washed with PBS, and coated with anti-IgM (SouthernBiotech, Cat. #1020-01) or anti-IgG (SouthernBiotech, Cat. #1030-01) in PBS. Single bone marrow cell suspensions were prepared, as above, and cultured at 250,000 cells/ml in RPMI 1640 medium (Invitrogen) supplemented with FBS (10% v/v, Invitrogen), penicillin-streptomycin/amphotericin B (1% v/v) and 50 μM β-mercaptoethanol (RPMI-FBS) at 37° C. for 16 h. After supernatants were removed, plates were incubated with biotinylated goat anti-mouse IgM (SouthernBiotech, Cat. #1020-08) or goat anti-mouse IgG1 (SouthernBiotech, Cat. #1070-08) Ab for 2 h and, after washing, incubated with HRP-conjugated streptavidin. Plates were developed using the Vectastain AEC peroxidase substrate kit (Vector Laboratories). The stained area in each well was quantified using the CTL ImmunoSpot software (Cellular Technology) and depicted as the number of spots for quantification
Flow cytometry: Single cell suspensions were flushed from tibia and fibula using sterile DPBS using a 10 ml syringe and 30 G needle. Red blood cells were removed by incubation with ACK lysis buffer (Lonzo) for 2 m. Bone marrow cells (2×10^6) were first stained in Hank's Buffered Salt Solution plus 0.1% BSA (HBSS-BSA) for 20 m with fixable viability dye (FVD, eFluor™ 506, eBioscience™, Cat. #50-246-097) and fluorophore-labeled mAbs to surface markers, including CD3 (APC-Cy7, Clone 17A2, BioLegend, Cat. #100221), IgD (FITC, Clone 11-26c.2a, BioLegend, Cat. #405704), CD138 (PE-Cy7, Clone 281-2, BioLegend, Cat. #142514), SCA-1 (PerCP, Clone D7, BioLegend, Cat. #108121), B220 (BV421, Clone RA3-6B2, BioLegend, Cat. #103240), in the presence of mAb Clone 2.4G2, which blocks FcγII and FcγIII receptors. After washing, cells were then fixed and permeablized by incubation for 1 h in 250 μl BD Cytofix/Cytoperm™ buffer (BD Fixation/Permeablization Kit, Cat. #554714) at 4° C. After washing twice with the BD Perm/Wash™ buffer, cells were counted again and 10^6 cells were resuspended in 100 μl of BD Cytofix/Cytoperm™ buffer for intracellular staining with anti-Igκ mAb (PE, e-Bioscience™, Clone 1871, Cat. #MKAPPA04) for 30 m. After washing with BD Perm/Wash™ buffer, cells were analyzed by LSRII (BD). FACS data were analyzed by the FlowJo® software (BD).
Animal Studies: All animal experiments were performed using UTHSA and UTSW IACUC approved protocols. For cell based xenograft tumor assays, TNBC cells (2×10^5-2×10^6) were mixed with an equal volume of matrigel and implanted in the mammary fat pads of 6-week-old female athymic nude mice as described^33. BALB/c mice were used for D2A1 syngeneic model. Once tumors reached measurable size, mice were divided into control (vehicle) and ERX-41 (10 mg/kg/oral) treatment groups. Mice bearing TNBC PDX tumors were purchased from Jackson laboratory (TM00089; TM00096; TM00098). TNBC PDX line UTPDX0001 establishment was earlier described^38. WHIM-20 ER+PDX model was purchased from Horizon Labs. OCa-PDX-38 was received from UTHSA ObGyn tissue procurement core. […]

CC(C)COc1cc(C(=O)Nc2ccc(C(=O)N[C@H]3CC[C@H](C)CC3)cc2OCC(C)C)ccc1NC(=O)c1ccc([N+](=O)[O-])c(OCCO)c1 [ERX-41]
effect on normal human mammary epithelial cells [1]: non-toxic; also recorded: did not have significant effect | ER stress markers in tumor xenograft tissues [2]: enhanced p-PERK, and p-eIF2α staining | bone marrow plasma cell numbers, Ig κ expression, IgM or IgG ASCs ([3]; flow cytometry and ELISpot, 1 week oral 10 mg/kg/day): did not show any significant effects | gross histology of organs, nude mice with MDA-MB-231 xenografts ([3]; heart, lung, spleen, liver, kidney, ovary, pancreas, 30 days oral 10 mg/kg/day): no significant changes in the gross histology of multiple organs | histology of organs, syngeneic mice with D2A1 xenografts ([3]; multiple organs including spleen): no significant histologic changes or immune infiltrates | ER stress in normal liver or kidney tissues ([3]; oral administration, data not shown): no significant induction of ER stress | uterus: proliferation index (Ki67), endometrial cell height, ERα expression ([3]; oral, 10 mg/kg/day): did not affect the proliferation index | immunogenicity ([3]; syngeneic mice): not immunogenic
